{"source": "patent US7122340B2", "about": "“Regulatory T cells; methods” (Schering Corporation, priority 2000, dated 2006)", "system": "naive T cells (CD4+CD62L+)", "assay": "Differentiation of naive CD4+ T cells stimulated with antigen and antigen presenting cells; cytokine profile after restimulation (FACS, secreted cytokines)", "format": "cell-based, mouse", "conditions": "antigen and APC culture of DO11.10 CD4+ T cells", "protocol": "IL-2 is present in the culture after the first 3 days of activation. VitD3 is used at 4×10^-8 M (preferably in the range 4×10^-9 M to 4×10^-7 M) while DEX is used at 10^-8M (preferably in the range of 10^-9 M to 10^-7 M).\nThe cytokine profiles produced by the cells after restimulation are evaluated after 6 h by FACS analysis, while the quantities are accumulated by the respective cell population in 1 ml for 48 h.\nDO.11.10 mice transgenic for an ovalbumin323-339 specific αβTCR were used as a source of antigen specific T cells. […] They were backcrossed on to a BALB/C background and (DO11.10×BALB/C)F1 mice were used as the source of T cells in all experiments. BALB/C (Taconics, Germantown, N.Y.) mice were used to provide splenic antigen presenting cells (APC).\nBriefly, immunomagnetic depletion of CD8α^+, B220^+, and Mac-1^+ splenocytes was performed using goat anti-rat Ig coated beads (Biomag, PerSeptive Biosystems, Framingham, Mass.). The depleted population was then stained with anti-CD4-FITC and anti-L-selectin-PE and CD4^+ L-selectin^high cells were sorted using a FACStar^Plus cell sorter (Becton-Dickinson, Mountain View, Calif.). […] After 6 days, T cells were harvested, counted, and restimulated at 2.5×10^4 per well in 200 μl in 96 well plates for phenotype analysis by cytokine secretion. […]"}
{"smiles": "C=C1/C(=C\\C=C2/CCC[C@]3(C)[C@@H]([C@H](C)CCCC(C)(C)O)CC[C@@H]23)C[C@@H](O)C[C@@H]1O", "note": "[VitD3, 1,25(OH)-Dihydroxyvitamin D3]", "values": [{"measurement": "Resulting T cell population / cytokine profile (in words)", "result": "drive the development of Th2 cells producing high levels of IL-4 and IL-5 and reduced IFN-γ"}]}
